# From BindingDB's records for patent US20230285340 (Theravance Biopharma R&D Ip, 2023)
# Target: Neprilysin/Angiotensin-converting enzyme (Homo sapiens, UniProt P08473+P12821)
# Test: Enzyme Inhibition Assays (Assay 1)
row,Structure (SMILES),Ki [µM]
1,"CC(C)OC(=O)[C@H](O)C[C@@H](Cc1ccc(-c2cccc(Cl)c2)cc1)NC(=O)C(=O)O [US20230285340, Example 2J]",0.0126 to 0.1
2,"CC(C)OC(=O)C(=O)N[C@H](Cc1ccc(-c2cccc(Cl)c2)cc1)C[C@@H](O)C(=O)O [US20230285340, Example 2G]",0.00126 to 0.01
3,"CC(C)COC(=O)[C@H](O)C[C@@H](Cc1ccc(-c2cccc(Cl)c2)cc1)NC(=O)C(=O)O [US20230285340, Example 2I]",0.00126 to 0.01
4,"O=C(O)C(=O)N[C@H](Cc1ccc(-c2ccccc2)cc1Cl)C[C@@H](O)C(=O)O [US20230285340, Example 4]",0.00126 to 0.01

# Now from value to compound:
row,Ki [µM],Structure (SMILES)
1,0.00126 to 0.01,"O=C(O)C(=O)NN(Cc1ccc(-c2cccc(Cl)c2)cc1)C[C@@H](O)C(=O)O [US20230285340, Example 13]"
2,0.00126 to 0.01,"CC(C)(c1ccc(-c2ccccc2)cc1)[C@H](C[C@@H](CO)C(=O)O)NC(=O)C(=O)O [US20230285340, Example 16]"
3,0.00126 to 0.01,"C[C@@](CO)(C[C@@H](Cc1ccc(-c2cccc(F)c2)cc1)NC(=O)C(=O)O)C(=O)O [US20230285340, Example 10]"
4,0.00126 to 0.01,"CCOC(=O)C(=O)NN(Cc1ccc(-c2cc(Cl)ccc2F)cc1)C[C@@H](O)C(=O)O [US20230285340, Example 14F]"
5,0.0126 to 0.1,"CC(O)(CN(Cc1ccc(-c2ccccc2)cc1)NC(=O)C(=O)O)C(=O)O (stereo unspecified) [US20230285340, Example 12]"
6,0.00126 to 0.01,"C[C@@](CO)(C[C@@H](Cc1ccc(-c2ccccc2)cc1)NC(=O)C(=O)O)C(=O)O [US20230285340, Example 9A]"
7,0.0126 to 0.1,"CC(C)(c1ccc(-c2ccccc2)cc1)[C@H](C[C@@H](O)C(=O)O)NC(=O)C(=O)O [US20230285340, Example 15]"
